Consider eleven molecules from ChEMBL document CHEMBL1201862, “PubChem BioAssay data set” (2004).

Experiment in all cases: NCI anticancer screen, dose series, 48 h
Assay [1] deals with SK-MEL-2.
For assay [2], the system named is T47D.
The subject of assay [3] is HOP-62.
The subject of assay [4] is MOLT-4.
For assay [5], the system named is EKVX.
The test system of assay [6] is SNB-75.
For assay [7], the system named is MDA-MB-231.
Assay [8] deals with HCT-116.
Assay [9] concerns IGROV-1.
The subject of assay [10] is OVCAR-8.
In assay [11] the test system is SN12C.
Assay [12] relates to OVCAR-4.
Assay [13] concerns A498.
Assay [14] has as its system KM12.
The subject of assay [15] is U-251.
The test system of assay [16] is NCI-H460.
Assay [17] has as its system HCT-15.
Assay [18] concerns MDA-MB-435.
The test system of assay [19] is OVCAR-5.

Where “and” joins values, the source holds several entries; their conditions need not be identical. Equal entries are not always repeated.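 Results reflect a 48-hour exposure of cells in 96-well plates to compound at five concentrations. At the GI50, growth is halved.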 Calls of active or inactive are those of the source. Rule as the data show it: active = GI50 up to about 1.1 µM and inactive = higher. Where only a bound is given, the exact number is not on record here.

Take `Cc1nc2ccccc2c(=O)n1NC(=S)Nc1ccc(Cl)cc1[N+](=O)[O-]`: the GI50 in assay [1] is > 100 µM (inactive); in assay [2], > 100 µM (inactive); in assay [3] it was > 100 µM (inactive); in assay [4] it was > 100 µM (inactive); in assay [5] it was 36.2 µM (inactive); in [6], > 78.3 µM (inactive). For the same molecule, the GI50 in assay [7], in assay [8], in assay [9], in assay [10], in assay [11] and in assay [12] was > 100 µM (inactive) throughout. The GI50 in assay [13] is > 100 µM (inactive); in assay [14], > 100 µM (inactive); in [15], > 100 µM (inactive); in assay [16], > 100 µM (inactive); in [17], greater than 100 µM; in [18], > 100 µM (inactive).
Turning to `CC(=O)OCC(OC(C)=O)C(OC(C)=O)C(/C=N\Nc1nc2ccccc2c(=O)[nH]1)OC(C)=O` (stereo unspecified), the GI50 is > 100 µM (inactive) in assay [1]; > 100 µM (inactive) in [19]; > 100 µM (inactive) in assay [2]; > 100 µM (inactive) in assay [3]; 86.9 µM (inactive) in [4]; > 100 µM (inactive) in [5]. Also, the GI50 in assay [6] is > 100 µM (inactive); in assay [7], > 100 µM (inactive); in assay [8] it was > 100 µM (inactive); in [9], 26.1 µM (inactive) and 43.5 µM (inactive); in assay [10], > 100 µM (inactive); in assay [11], > 100 µM (inactive). Further, the GI50 in [13] was > 100 µM (inactive); in assay [14], > 100 µM (inactive); in assay [15] it was > 100 µM (inactive); in [16] it was > 100 µM (inactive); in assay [17], greater than 100 µM; in [18], > 100 µM (inactive).
On to `c1nncn1C12C3C4C5C3C1C5C42` (stereo unspecified), for which the GI50 in assay [1], in assay [19], in assay [2], in [3], in assay [4] and in assay [5] was > 100 µM (inactive) throughout. Moreover, the GI50 in assay [6], in assay [7], in assay [8], in assay [9], in assay [10] and in assay [11] was > 100 µM (inactive) each time. In addition, the GI50 is > 100 µM (inactive) in assay [13]; > 100 µM (inactive) in assay [14]; > 100 µM (inactive) in assay [15]; > 100 µM (inactive) in [16]; greater than 100 µM in [17]; > 100 µM (inactive) in assay [18].
Regarding `O=C(CN1CCOCC1)NC1=Nc2ncccc2C(=O)NN1`, the GI50 in assay [1], in [19], in [2], in assay [3], in assay [4] and in assay [5] was > 10 µM (inactive) each time. The GI50 in assay [6], in assay [7], in [8], in assay [9], in [10] and in [11] was > 10 µM (inactive) in each case. The GI50 was > 10 µM (inactive) in [13]; > 10 µM (inactive) in assay [14]; > 10 µM (inactive) in [15]; > 10 µM (inactive) in [16]; greater than 10 µM in assay [17]; > 10 µM (inactive) in assay [18].
For `[N-]=[N+]=Nc1nc2ccccc2c(N=[N+]=[N-])c1Cl`, the GI50 in assay [1] was > 100 µM (inactive); in [19], > 100 µM (inactive); in assay [2], > 100 µM (inactive); in assay [3], 79.1 µM (inactive); in assay [4] it was > 100 µM (inactive); in assay [6], 24.9 µM (inactive). The GI50 in assay [7] was > 100 µM (inactive); in assay [8], > 100 µM (inactive); in assay [9] it was > 100 µM (inactive); in assay [11] it was > 100 µM (inactive); in [12], 68.9 µM (inactive); in assay [13], 6.81 µM (inactive). Further, the GI50 in assay [14] is > 100 µM (inactive); in [15] it was > 100 µM (inactive); in assay [16], > 100 µM (inactive); in assay [17] it was greater than 100 µM; in [18], > 100 µM (inactive).
On to `Fc1ccccc1C1SCC2=Nc3ccccc3CN21` (stereo unspecified), for which the GI50 is 43.6 µM (inactive) in [1]; 92.9 µM (inactive) in assay [19]; > 100 µM (inactive) in [2]; 67.1 µM (inactive) in assay [3]; > 100 µM (inactive) in [4]; > 100 µM (inactive) in assay [5]. Moreover, the GI50 in [6] is > 100 µM (inactive); in assay [7], > 100 µM (inactive); in [8], 48.5 µM (inactive); in assay [10], > 100 µM (inactive); in [11] it was > 100 µM (inactive); in [12], > 100 µM (inactive). Besides, the GI50 in assay [13] was > 100 µM (inactive); in [14] it was > 100 µM (inactive); in assay [15] it was > 100 µM (inactive); in assay [16], > 100 µM (inactive); in assay [17] it was greater than 100 µM; in [18], > 100 µM (inactive).
For the molecule `CCOC(=O)C1(N)CCc2[nH][nH]c(=O)c2C1` (stereo unspecified), the GI50 in assay [1], in assay [19], in assay [2], in assay [3], in [4] and in assay [5] was > 100 µM (inactive) each time. The GI50 in assay [6], in assay [7], in assay [8], in assay [9], in assay [10] and in assay [12] was > 100 µM (inactive) each time. The GI50 was > 100 µM (inactive) in assay [13]; > 100 µM (inactive) in assay [14]; > 100 µM (inactive) in [15]; > 100 µM (inactive) in assay [16]; greater than 100 µM in assay [17]; > 100 µM (inactive) in [18].
As for `CCOC(=O)c1cc2cc(C)cc(C(=O)c3ccc([N+](=O)[O-])cc3)c2[nH]1`, the GI50 was > 100 µM (inactive) in [1]; > 100 µM (inactive) in assay [19]; > 100 µM (inactive) in [2]; 33.4 µM (inactive) in [3]; > 100 µM (inactive) in assay [4]; > 100 µM (inactive) in assay [5]. Also, the GI50 is 51.6 µM (inactive) in assay [6]; 38.5 µM (inactive) in [7]; > 100 µM (inactive) in assay [8]; > 100 µM (inactive) in assay [9]; > 100 µM (inactive) in assay [11]; > 100 µM (inactive) in assay [12]. In addition, the GI50 is > 100 µM (inactive) in assay [13]; > 100 µM (inactive) in assay [14]; 26.6 µM (inactive) in assay [15]; > 100 µM (inactive) in assay [16]; greater than 100 µM in assay [17]; > 100 µM (inactive) in [18].
Consider `CCOC(=O)NN(C(=O)OCC)c1c(C)cc(C)cc1C`, for which the GI50 in [1], in [19], in assay [2], in assay [4], in assay [5] and in assay [6] was > 100 µM (inactive) each time. Moreover, the GI50 in [7] is > 100 µM (inactive); in assay [8] it was > 100 µM (inactive); in assay [9] it was 64.4 µM (inactive); in [10] it was > 100 µM (inactive); in assay [11] it was > 100 µM (inactive); in [12], > 100 µM (inactive). Besides, the GI50 in assay [13] is > 100 µM (inactive); in assay [14], > 100 µM (inactive); in [15], > 100 µM (inactive); in assay [16] it was > 100 µM (inactive); in [17], greater than 100 µM; in assay [18] it was > 100 µM (inactive).
In the case of `CCCNC(=O)N1CC(CN2CCN(c3ccccc3)CC2)O/C1=N/C(=O)Nc1ccccc1` (stereo unspecified), the GI50 in [1] is 45.3 µM (inactive); in [19], > 100 µM (inactive); in assay [2], 18.2 µM (inactive); in [3] it was > 100 µM (inactive); in assay [4], > 100 µM (inactive); in assay [5] it was 71.8 µM (inactive). The GI50 in assay [6] was 76.2 µM (inactive); in assay [7], > 100 µM (inactive); in assay [8], > 100 µM (inactive); in assay [9] it was > 100 µM (inactive); in assay [11], > 100 µM (inactive); in assay [12], 90.4 µM (inactive). For the same molecule, the GI50 is > 100 µM (inactive) in assay [13]; > 100 µM (inactive) in assay [14]; > 100 µM (inactive) in assay [15]; > 100 µM (inactive) in assay [16]; 84.5 µM (inactive) in assay [18].
As for `CCOC(=O)[C@@H]1[C@@H](c2ccccc2)N(C)O[C@@]1(c1ccccc1)C(F)(F)F`, the GI50 in assay [1] was 25.5 µM (inactive); in assay [19], > 100 µM (inactive); in assay [2], 67.9 µM (inactive); in assay [3] it was > 100 µM (inactive); in assay [4], > 10 µM (inactive); in [5] it was 86.3 µM (inactive). Also, the GI50 in [6] is > 100 µM (inactive); in [7], > 100 µM (inactive); in [8], 36.5 µM (inactive); in assay [9] it was > 100 µM (inactive); in assay [10], > 100 µM (inactive); in assay [11], > 100 µM (inactive). Further, the GI50 is 77.3 µM (inactive) in [12]; > 100 µM (inactive) in assay [13]; 58.9 µM (inactive) in assay [14]; 50.4 µM (inactive) in [15]; 40.1 µM in assay [17]; 28.4 µM (inactive) in assay [18].
